The Deep4Chem optical property database
“And” between values parts separate entries of the source, which are not always exact repeats. Equal entries are not always repeated.

Test: solvent given as SMILES
Details: in CO

Row | Compound | emission maximum
1 | C#CCOc1ccc(/C=C/C2=[N+]3C(=C(c4ccc(N(CC)CC)cc4)c4c(C)cc(/C=C/c5ccc(OCC(=O)OC)cc5)n4[B-]3(F)F)C(C)=C2)cc1 | 655 nm
2 | CC1=CC(C)=[N+]2C1=C(c1ccc(N3CCOCC3)cc1)c1c(C)cc(C)n1[B-]2(F)F | 514 nm
3 | CCOC(=O)/C(C#N)=C\c1cn(-c2ccccc2)nc1-c1ccccc1 | 434 nm
4 | CCCN1C(=O)C(=CC=CC=C2Oc3ccccc3N2CCCS(=O)(=O)[O-])C(=O)N(CCC)C1=S | 577 nm
5 | Oc1ccc2ccccc2c1C1Nc2cccc3cccc(c23)N1 | 476 nm
6 | Fc1ccc(-c2cc3ccc4cc(-c5ccc(F)cc5)cc5ccc(c2)c3c45)cc1 | 408.05 nm
7 | CN(C)C(=O)c1ccc(-c2nc3ccc(N(C)C)cc3s2)cc1 | 543 nm
8 | CC1=[N+]2C(=C(c3ccc(N(C)C)cc3)c3ccc(C)n3[B-]2(F)F)C=C1 | 511 nm
9 | O=c1[nH]c(=O)c2scc([C@H]3C[C@H](O)[C@@H](CO)O3)c2[nH]1 | 351 nm
10 | [C-]#[N+]c1ccc(-c2ccc(N(C)C)cc2)cc1 | 430 nm
11 | CC1(C)C(/C=C/C2=C(c3ccc(C(=O)O)cc3)C(=C/C=C3/N(CCCCS(=O)(=O)[O-])c4ccc(S(=O)(=O)[O-])cc4C3(C)C)/CCC2)=[N+](CCCCS(=O)(=O)[O-])c2ccc(S(=O)(=O)[O-])cc21 | 785 nm and 790 nm

Same assay, conditions: in CS(C)=O

Row | Compound | emission maximum
12 | O=c1oc2ccccc2cc1-c1cc2ccccc2o1 | 450 nm
13 | CCOC(=O)/C(C#N)=C\c1cn(-c2ccccc2)nc1-c1ccccc1 | 440 nm
14 | Oc1ccc2ccccc2c1C1Nc2cccc3cccc(c23)N1 | 528 nm
15 | [C-]#[N+]c1ccc(-c2ccc(N(C)C)cc2)cc1 | 447 nm
16 | Cc1cc2c(cc1C)NC(=O)CC(=O)N2 | 349 nm
17 | N#Cc1cc2ccc(O)cc2oc1=N | 409 nm

Results, then the compound that gave them:

Row | emission maximum | Compound
18 | 412 nm | Clc1ccccc1-c1nc2sc3ccccc3c2s1
19 | 534 nm | CN(C)C(=O)c1ccc(-c2nc3ccc(N(C)C)cc3s2)cc1
20 | 530 nm | C[n+]1ccnc(/C=C/c2ccc(N(c3ccccc3)c3ccc(/C=C/c4c[n+](C)ccn4)cc3)cc2)c1

Same assay, conditions: in Cc1ccccc1

Row | Compound | emission maximum
21 | Cc1ccc2c(c1)C1(c3ccccc3Oc3ccccc31)c1cc(C)ccc1N2c1ccc(-c2nc(-c3ccccc3)cc(-c3ccccc3)n2)cc1 | 451 nm
22 | O=c1oc2ccccc2cc1-c1cc2ccccc2o1 | 431 nm
23 | CCCCC(CC)CN1C(=O)C2=C(c3ccc(-c4ccc(C5=C6C(C)=CC(C)=[N+]6[B-](F)(F)n6c(C)cc(C)c65)cc4)s3)N(CC(CC)CCCC)C(=O)C2=C1c1cccs1 (stereo not given) | 623 nm
24 | CCOC(=O)/C(C#N)=C\c1cn(-c2ccccc2)nc1-c1ccccc1 | 407 nm
25 | Oc1ccc2ccccc2c1C1Nc2cccc3cccc(c23)N1 | 468 nm
26 | COc1ccc2c3c(c4ccc(OC)cc4c2c1)=[N+]1C(=C(c2c(C)cc(C)cc2C)c2cc4c5ccc(OC)cc5c5cc(OC)ccc5c4n2[B-]1(F)F)C=3 | 712 nm
27 | Cc1nnc(-c2cc(-c3nnc(C)o3)c(-n3c4ccccc4c4ccccc43)cc2-n2c3ccccc3c3ccccc32)o1 | 444 nm
28 | CC1=[N+]2C(=C(c3ccc(N(C)C)cc3)c3ccc(C)n3[B-]2(F)F)C=C1 | 580 nm
29 | [C-]#[N+]c1ccc(-c2ccc(N(C)C)cc2)cc1 | 387 nm
30 | C(=C\c1ccc(-c2nnc(-c3ccc(/C=C/c4ccc(-c5nc(-c6ccccc6)c(-c6ccccc6)[nH]5)cc4)cc3)o2)cc1)/c1ccc(-c2nc(-c3ccccc3)c(-c3ccccc3)[nH]2)cc1 | 445 nm
31 | C(=C\c1nc(/C=C/c2ccc(-n3c4ccccc4c4ccccc43)cc2)nc(/C=C/c2ccc(-n3c4ccccc4c4ccccc43)cc2)n1)/c1ccc(-n2c3ccccc3c3ccccc32)cc1 | 453 nm
32 | O=C(c1ccc(-n2c3ccccc3c3cc(-n4c5ccccc5c5ccccc54)ccc32)cc1)c1ccc(-n2c3ccccc3c3cc(-n4c5ccccc5c5ccccc54)ccc32)cn1 | 462 nm

Same assay, conditions: in ClC(Cl)Cl

Row | Compound | emission maximum
33 | CCOC(=O)/C(C#N)=C\c1cn(-c2ccccc2)nc1-c1ccccc1 | 431 nm
34 | CCCN1C(=O)C(=CC=CC=C2Oc3ccccc3N2CCCS(=O)(=O)[O-])C(=O)N(CCC)C1=S | 589 nm
35 | Fc1ccc(-c2cc3ccc4cc(-c5ccc(F)cc5)cc5ccc(c2)c3c45)cc1 | 410.54 nm
36 | CC1=[N+]2C(=C(c3ccc(N(C)C)cc3)c3ccc(C)n3[B-]2(F)F)C=C1 | 615 nm
37 | CCCCCCCCCc1csc2cc(-c3cc(-c4cc5scc(CCCCCCCCC)c5s4)c4ccc5c(-c6cc7scc(CCCCCCCCC)c7s6)cc(-c6cc7scc(CCCCCCCCC)c7s6)c6ccc3c4c65)sc12 | 490 nm
38 | [C-]#[N+]c1ccc(-c2ccc(N(C)C)cc2)cc1 | 405 nm
39 | N#Cc1cc2ccc(O)cc2oc1=N | 415 nm

Now from value to compound:

Row | emission maximum | Compound
40 | 472 nm | CN(C)C(=O)c1ccc(-c2nc3ccc(N(C)C)cc3s2)cc1
41 | 415 nm | CCc1ccc(-n2c3ccccc3c3cc4c(cc32)c2ccccc2n4-c2ccc(CC)cc2)cc1
42 | 618 nm | CCCN1c2ccccc2Sc2cc(/C=C\c3cc(=O)oc4ccccc34)ccc21

Same assay, conditions: in ClCCl

Row | Compound | emission maximum
43 | CCOC(=O)/C(C#N)=C\c1cn(-c2ccccc2)nc1-c1ccccc1 | 428 nm
44 | COc1ccc2c3c(c4ccc(OC)cc4c2c1)=[N+]1C(=C(c2c(C)cc(C)cc2C)c2cc4c5ccc(OC)cc5c5cc(OC)ccc5c4n2[B-]1(F)F)C=3 | 711 nm
45 | Fc1ccc(-c2cc3ccc4cc(-c5ccc(F)cc5)cc5ccc(c2)c3c45)cc1 | 409.82 nm
46 | [C-]#[N+]c1ccc(-c2ccc(N(C)C)cc2)cc1 | 412 nm
47 | COc1cc(OC)c2cc(C#N)c(=N)oc2c1 | 428 nm
48 | C(=C\c1nc(/C=C/c2ccc(-n3c4ccccc4c4ccccc43)cc2)nc(/C=C/c2ccc(-n3c4ccccc4c4ccccc43)cc2)n1)/c1ccc(-n2c3ccccc3c3ccccc32)cc1 | 526 nm
49 | CCOC(=O)/N=c1/oc2c(OC)cccc2cc1C#N | 465 nm
50 | COc1ccc2oc(=N)c(C#N)cc2c1 | 468 nm

Second part, the compound after the results:

Row | emission maximum | Compound
51 | 540 nm | C(=C\c1cc(/C=C/c2ccc(N(c3ccccc3)c3ccccc3)cc2)ncn1)/c1ccc(N(c2ccccc2)c2ccccc2)cc1
52 | 780 nm | CCc1ccc(C2=[N+]3C(=Cc4c5ccc(OC)cc5c(-c5ccc(CC)s5)n4[B-]3(F)F)c3ccc(OC)cc32)s1
53 | 475 nm | COC(=O)c1[nH]c(-c2ccccc2)c2nnc3ccc(OC)cc3c12
54 | 472 nm | CC(C)c1cccc(C(C)C)c1N1C(c2ccccc2)=Cc2ccc3ccccc3[n+]2[B-]1(F)F
55 | 359 nm | FC(F)(F)c1ccc(-c2ccc(-c3cc(-c4ccccn4)nc(-c4ccccn4)c3)cc2)cc1
56 | 735 nm | CCN(CC)c1ccc2c(-c3ccccc3C(=O)O)c3c([o+]c2c1)/C(=C/c1nc(C)n2ccccc12)CCC3
57 | 463 nm | C[Si]1(C)c2cc(-c3ccc(-c4cccs4)s3)ccc2C=Cc2ccc(-c3ccc(-c4cccs4)s3)cc21
58 | 373 nm | C[Si]1(C)c2ccc(-c3cccs3)cc2C=Cc2cc(-c3cccs3)ccc21
59 | 529 nm | O=c1oc2ccccc2c2c1c(=O)oc1cc(O)c3ccccc3c12

Same assay, conditions: in O

Row | Compound | emission maximum
60 | O=c1oc2ccccc2cc1-c1cc2ccccc2o1 | 475 nm
61 | CCCN1C(=O)C(=CC=CC=C2Oc3ccccc3N2CCCS(=O)(=O)[O-])C(=O)N(CCC)C1=S | 573 nm
62 | O=c1[nH]c(=O)c2scc([C@H]3C[C@H](O)[C@@H](CO)O3)c2[nH]1 | 351 nm
63 | CNc1ccc(/C=C/C(=O)OC)cc1 | 470 nm
64 | [C-]#[N+]c1ccc(-c2ccc(N(C)C)cc2)cc1 | 417 nm

Same assay, conditions: in O=P(c1ccccc1)(c1ccccc1)c1ccc2oc3ccc(P(=O)(c4ccccc4)c4ccccc4)cc3c2c1

Row | Compound | emission maximum
65 | Cc1ccc2c(c1)C1(c3ccccc3Oc3ccccc31)c1cc(C)ccc1N2c1ccc(-c2nc(-c3ccccc3)cc(-c3ccccc3)n2)cc1 | 452 nm

Same assay, conditions: in O=P(c1ccccc1)(c1ccccc1)c1ccccc1Oc1ccccc1P(=O)(c1ccccc1)c1ccccc1

Row | Compound | emission maximum
66 | Cc1nnc(-c2cc(-c3nnc(C)o3)c(-n3c4ccccc4c4ccccc43)cc2-n2c3ccccc3c3ccccc32)o1 | 448 nm
67 | O=C(c1ccc(-n2c3ccccc3c3cc(-n4c5ccccc5c5ccccc54)ccc32)cc1)c1ccc(-n2c3ccccc3c3cc(-n4c5ccccc5c5ccccc54)ccc32)cn1 | 475 nm

Same assay, conditions: in OCC(O)CO

Row | emission maximum | Compound
68 | 690 nm | C[n+]1ccnc(/C=C/c2ccc(N(c3ccccc3)c3ccc(/C=C/c4c[n+](C)ccn4)cc3)cc2)c1

Same assay, conditions: in c1ccccc1

Row | emission maximum | Compound
69 | 457 nm | CN(C)C(=O)c1ccc(-c2nc3ccc(N(C)C)cc3s2)cc1

Same assay, conditions: in c1ccncc1

Row | Compound | emission maximum
70 | [C-]#[N+]c1ccc(-c2ccc(N(C)C)cc2)cc1 | 422 nm
